Columns and labels:
Format in all cases: biochemical
[1] = molecular target: T1, bZiPro (unlinked binary Zika virus NS2B-NS3 protease) (Zika virus, UniProt A0A024B7W1); test: Enzyme kinetics with bZiPro, fluorogenic substrate Phac-Leu-Lys-Lys-Arg-AMC; conditions: for Ki: K i bZiPro, mean±SD of at least three independent measurements, substrate 10 μM in assay, room temperature, pH 8.5
T1 construct: The viral protease consists of the N‐terminal third of the nonstructural protein NS3; the NS2B construct ends at Glu96; His6 (cleaved yes); made in house
T1 sequence (A0A024B7W1 1503-1680 limits assumed): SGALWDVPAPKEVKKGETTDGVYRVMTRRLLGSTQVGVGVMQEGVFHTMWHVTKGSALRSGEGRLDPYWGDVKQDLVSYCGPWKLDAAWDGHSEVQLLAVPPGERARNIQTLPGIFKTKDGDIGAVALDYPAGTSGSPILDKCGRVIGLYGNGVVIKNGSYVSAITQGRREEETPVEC
T1 sequence (A0A024B7W1 1425-1464 limits assumed): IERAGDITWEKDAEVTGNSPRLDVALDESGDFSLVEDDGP
Procedure: (§1) Enzyme kinetics. Measurements with bZiPro15 and the covalent WNV NS2B‐NS3 construct^10 were performed at room temperature in black 96 well plates using a Fluoroskan Ascent® plate reader (Thermo Fisher Scientific, Vantaa, Finland) with λ ex at 355 nm and λ em at 460 nm. Each well contained 125 μL inhibitor dissolved in buffer (for bZiPro: 20 mM Tris×HCl pH 8.5, 2 mM DTT, 10 w/v glycerol and 0.01 w/v Triton X‐100;18 for WNV protease: 100 mM Tris×HCl pH 8.5, containing 32 w/v glycerol and 0.01 w/v Triton X‐10012) and 50 μL substrate Phac‐Leu‐Lys‐Lys‐Arg‐AMC12 (40 μM for bZiPro (10 μM in assay, K M=1.4 μM) and 400 μM for the WNV protease (100 μM in assay, K M=53 μM)). The measurements were started by addition of 25 μL enzyme solution (16 nM for bZiPro (2.0 nM in assay), and 64 nM for the WNV protease (8.0 nM in assay)). Data points were collected each 15 s over a period of 10 min using eight different inhibitor concentrations. […] The K i values and their standard deviation were obtained from at least three independent measurements.(1) vi=Vmax×[S]/KM1+[I]/Ki+[S]
The constants K M and V max were obtained from independent measurements with six different substrate concentrations in absence of inhibitor. For inhibitor 10 with bZiPro, additional measurements at three substrate concentrations (10, 5, and 2.5 μM in assay) were performed to obtain the Dixon plot shown in Figure 4.

[2] = molecular target: T2, WNV NS2B-NS3 protease (WNV-Pro) (West Nile virus, UniProt P06935); test: Enzyme kinetics with the covalent WNV NS2B-NS3 construct, substrate Phac-Leu-Lys-Lys-Arg-AMC
T2 construct: NS3 has to form a complex with its cofactor NS2B to achieve proteolytic activity; The viral protease consists of the N‐terminal third of the nonstructural protein NS3
T2 sequence (P06935 1424-1463): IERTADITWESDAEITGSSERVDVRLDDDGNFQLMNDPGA
T2 sequence (P06935 1502-1679): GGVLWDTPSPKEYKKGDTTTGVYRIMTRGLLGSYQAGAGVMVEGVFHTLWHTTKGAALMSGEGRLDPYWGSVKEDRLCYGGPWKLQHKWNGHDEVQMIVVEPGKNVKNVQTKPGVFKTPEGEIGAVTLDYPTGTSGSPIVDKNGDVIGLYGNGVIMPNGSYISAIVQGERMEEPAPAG
Procedure: as §1

[3] = molecular target: T3, bD4Pro (unlinked binary dengue-4 virus NS2B-NS3 protease) (Dengue virus type 4, UniProt Q2YHF2); test: Enzyme kinetics with bD4Pro, substrate Benzoyl-Nle-Lys-Arg-Arg-AMC
T3 construct: The viral protease consists of the N‐terminal third of the nonstructural protein NS3; NS3 has to form a complex with its cofactor NS2B to achieve proteolytic activity; His6 (cleaved yes); made in house
T3 sequence (Q2YHF2 1475-1652 limits assumed): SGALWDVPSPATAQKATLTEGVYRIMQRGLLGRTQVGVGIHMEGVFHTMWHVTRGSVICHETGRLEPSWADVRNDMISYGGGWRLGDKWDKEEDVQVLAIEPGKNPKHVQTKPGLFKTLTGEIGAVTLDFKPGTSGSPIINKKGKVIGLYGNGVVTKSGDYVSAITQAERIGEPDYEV
T3 sequence (Q2YHF2 1397-1436 limits assumed): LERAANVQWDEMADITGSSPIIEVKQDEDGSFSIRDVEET
Procedure: Measurements with the dengue 4 virus protease construct (bD4Pro; expressed and purified by a similar methodology as described for bZiPro15 with slight modification of using Tobacco Etch Virus (TEV) protease instead of thrombin for His6‐tag cleavage) were performed in a Cytation 3 Mulitmode plate reader with λ ex at 380 nm and λ em at 460 nm. Assays were carried out as triplicate at 37 °C. Before measurement, the protease (final assay concentration 3 nM) was preincubated with varying concentrations of inhibitors in assay buffer (20 mM Tris pH 8.5, 10 % glycerol, 0.01 % Triton X‐100) for 1 h at room temperature in Corning black clear bottom 96‐well plates. The reaction was started by addition of the substrate Benzoyl‐Nle‐Lys‐Arg‐Arg‐AMC (final assay concentration 50 μM, K M=48.4 μM). Fluorescent readings were recorded at 1‐minute intervals over 10 minutes. The steady‐state rates v i in presence of inhibitor were calculated from the slopes of the progress curves using Graph Pad Prism. The v i values were fitted to Equation (2) as function of the inhibitor concentration [I] providing the IC50 values, where v 0 is the rate in absence of inhibitor and s a slope factor. The obtained IC50 values were finally converted into K i values by the Cheng‐Prusoff Equation (2).(2) vi=v0/1+I/IC50^s (3) Ki=IC50/1+S/KM

trypsin = molecular target: T4, trypsin (Bos taurus, UniProt P00760); test: Enzyme kinetic assay with trypsin (selectivity); conditions: at concentrations of 75 μM
T4 construct: gene PRSS1
T4 sequence (P00760 24-246): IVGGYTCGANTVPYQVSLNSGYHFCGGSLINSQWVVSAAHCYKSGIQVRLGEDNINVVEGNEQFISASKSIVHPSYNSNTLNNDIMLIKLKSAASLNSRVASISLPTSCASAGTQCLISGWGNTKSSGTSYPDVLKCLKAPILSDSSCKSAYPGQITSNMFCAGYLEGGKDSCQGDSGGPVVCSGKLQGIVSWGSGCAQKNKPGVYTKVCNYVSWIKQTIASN
Text: (§2) Some of the latter group, like the peptidic arginal8 or boroarginine derivatives,10 form a reversible covalent bond with their target. […] With respect to virus replication, mutations in allosteric binding pockets are better tolerated than changes in the active site, which often lead to a more severe influence on the fitness of the virus.31, 32 This advantage justifies further efforts for the improvement of active site inhibitors. One strategy to reduce the conformational freedom of peptide derivatives and predisposing them to a favorable orientation for binding is their macrocyclization, leading to improved potency, selectivity and stability.33 By this approach, we have prepared numerous noncovalent inhibitors with excellent selectivity for the tested flavivirins, when compared with trypsin‐like serine proteases or basic proprotein convertases. […] The deep S1 pocket of trypsin34 and furin35 cannot tolerate a branching close to the basic P1 guanidine anchor, which is well accepted by the flavivirins due to their flat and open S1 site. In contrast to some of our previously described linear C‐terminal elongated derivatives,18, 36 the cyclic derivatives are fully stable when incubated with bZiPro, as analyzed by mass spectrometry (Figure S3). […]

furin = furin (Homo sapiens, UniProt P09958); test: Enzyme kinetic assay with furin (selectivity); conditions: at concentrations of 75 μM
Chain of furin (P09958 108-794): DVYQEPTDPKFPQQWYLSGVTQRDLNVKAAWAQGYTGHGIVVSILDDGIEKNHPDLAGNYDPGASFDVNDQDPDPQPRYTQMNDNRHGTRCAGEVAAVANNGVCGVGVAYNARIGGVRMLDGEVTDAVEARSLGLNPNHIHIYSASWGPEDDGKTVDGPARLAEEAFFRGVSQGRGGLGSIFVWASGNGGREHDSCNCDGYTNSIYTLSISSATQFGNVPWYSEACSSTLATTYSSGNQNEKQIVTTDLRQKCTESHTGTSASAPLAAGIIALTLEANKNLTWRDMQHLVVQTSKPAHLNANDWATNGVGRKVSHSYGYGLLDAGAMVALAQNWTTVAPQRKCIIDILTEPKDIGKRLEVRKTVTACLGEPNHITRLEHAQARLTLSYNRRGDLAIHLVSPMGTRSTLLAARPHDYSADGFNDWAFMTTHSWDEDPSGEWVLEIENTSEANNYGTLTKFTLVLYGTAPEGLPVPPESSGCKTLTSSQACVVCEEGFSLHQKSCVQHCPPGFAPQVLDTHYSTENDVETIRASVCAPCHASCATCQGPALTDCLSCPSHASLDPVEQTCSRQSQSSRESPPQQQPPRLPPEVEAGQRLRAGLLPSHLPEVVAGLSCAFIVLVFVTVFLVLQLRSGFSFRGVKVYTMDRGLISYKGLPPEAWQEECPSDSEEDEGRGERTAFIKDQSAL
Text: as §2

| SMILES | Ki [1] [nM] | binding mode from Dixon plot of bZiPro inhibition ([1]; substrate 10, 5 and 2.5 μM, bZiPro 1.96 nM in assay) | Ki [2] [nM] | Ki [3] [nM] | inhibition of trypsin (trypsin) | inhibition of furin (furin) |
| --- | --- | --- | --- | --- | --- | --- |
| N=C(N)N[C@@H]1CCCCNC(=O)[C@H](CCCCN)NC(=O)[C@H](CCCCN)NC(=O)Cc2cccc(c2)CNC(=O)CNC1=O [Inhibitor 10, 1‐((8R,15S,18S)‐15,18‐bis(4‐aminobutyl)‐4,7,14,17,20‐pentaoxo‐3,6,13,16,19‐pentaaza‐1(1,3)‐benzenacyclohenicosaphane‐8‐yl)guanidine] | 1.57 ± 0.32 | competitive reversible | 138 ± 31 | 142 ± 10 | could not detect any inhibition | could not detect any inhibition |
| N=C(N)N[C@@H]1CCCCNC(=O)[C@H](CCCCN)NC(=O)[C@H](CCCCN)NC(=O)Cc2cccc(c2)NC(=O)CNC1=O [Inhibitor 11] | 1420 ± 270 |  | 47600 ± 2500 | 60600 ± 5300 | could not detect any inhibition | could not detect any inhibition |
| C[C@H]1NC(=O)[C@H](NC(=N)N)CCCCNC(=O)[C@H](CCCCN)NC(=O)[C@H](CCCCN)NC(=O)Cc2cccc(c2)CNC1=O [Inhibitor 16] | 3.52 ± 1.09 |  | 237 ± 21 | 125 ± 4 |  |  |

— paper PMC7497253, “Structure‐Based Macrocyclization of Substrate Analogue NS2B‐NS3 Protease Inhibitors of Zika, West Nile and Dengue viruses” (Chemmedchem, 2020)
